The values that follow come from ChEMBL document CHEMBL1240412, “Synthesis and structure activity relationship studies of novel Staphylococcus aureus Sortase A inhibitors” (Eur J Med Chem, 2010).

A short description of the assay: Inhibition of Staphylococcus aureus Sortase Adelta59 by FRET assay.
Take `COC(=O)c1cc(N(C)C(=O)/C=C/c2ccco2)ccc1N1CCOCC1`: the IC50 came out at 514 µM. The compound `O=C(/C=C/c1ccco1)Nc1ccc(N2CCCCC2)c(C(=O)O)c1` had an IC50 of 463 µM.

As for `COC(=O)c1cc(NC(=O)/C=C\c2cccs2)ccc1N1CCOCC1`, the IC50 worked out at 61 µM.

Take `CN(C(=O)/C=C/c1ccco1)c1ccc(N2CCOCC2)c(C(=O)O)c1`: the IC50 was above 600 µM. `CN(C(=O)/C=C/c1cccs1)c1ccc(N2CCOCC2)c(C(=O)O)c1` had an IC50 above 600 µM. As to `COC(=O)c1cc(NC(=O)/C=C/c2cccs2)ccc1N1CCOCC1`, the IC50 came out at 71 µM. This lies in the double-digit micromolar range. For `O=C(/C=C\c1cccs1)Nc1ccc(N2CCOCC2)c(C(=O)O)c1`, half-maximal inhibition (IC50) required 154 µM. For the compound `O=C(C#Cc1cccs1)Nc1ccc(N2CCOCC2)c(C(=O)O)c1`, 183 µM corresponded to half-maximal inhibition (IC50). Take `O=C(/C=C/c1cccs1)Nc1ccc(N2CCOCC2)c(CO)c1`: the IC50 is 73 µM.

`O=Cc1cc(NC(=O)/C=C/c2cccs2)ccc1N1CCOCC1` had an IC50 of 77 µM.

Compound `COC(=O)c1cc(NC/C=C/c2cccs2)ccc1N1CCOCC1` yielded an IC50 of 249 µM. For `COC(=O)c1cc(NC(=O)/C=C/c2ccco2)ccc1N1CCOCC1`, half-maximal inhibition (IC50) required 58 µM. `O=C(O)c1cc(NC/C=C/c2cccs2)ccc1N1CCOCC1` showed a concentration for half-maximal inhibition (IC50) above 600 µM. To `O=C(CCc1ccco1)Nc1ccc(N2CCOCC2)c(C(=O)O)c1` belongs above 600 µM; to `COC(=O)c1cc(NC(=O)/C=C/c2cccs2)ccc1N1CCCCC1`, 92 µM; to `O=C(/C=C/c1ccco1)Nc1ccc(N2CCOCC2)c(CO)c1`, 111 µM. Consider `NC(=O)c1cc(NC(=O)/C=C/c2cccs2)ccc1N1CCOCC1`, for which the IC50 came to 105 µM. For the compound `O=C(/C=C/c1cccs1)Nc1ccc(N2CCOCC2)c(C(=O)O)c1`, half-maximal inhibition (IC50) was put at 75 µM. Take `COC(=O)c1cc(NC(=O)/C=C/c2ccco2)ccc1N1CCCCC1`: it took 131 µM to reach half-maximal inhibition (IC50). This IC50 is about 1.7-fold higher than that of the compound before. `COC(=O)c1cc(NC(=O)CCc2cccs2)ccc1N1CCOCC1` gave an IC50 above 600 µM. With `O=C(/C=C/c1ccco1)Nc1ccc(N2CCOCC2)c(C(=O)O)c1`, the IC50 came to 181 µM. To `COC(=O)c1cc(NC(=O)CCc2ccco2)ccc1N1CCOCC1` belongs above 600 µM.

`COC(=O)c1cc(NC(=O)C#Cc2cccs2)ccc1N1CCOCC1` registered an IC50 of 165 µM. The compound `COC(=O)c1cc(N(C)C(=O)/C=C/c2cccs2)ccc1N1CCOCC1` gave an IC50 of 571 µM. The compound `O=C(CCc1cccs1)Nc1ccc(N2CCOCC2)c(C(=O)O)c1` came in with a half-inhibitory concentration (IC50) above 600 µM.

`O=C(/C=C/c1cccs1)Nc1ccc(N2CCCCC2)c(C(=O)O)c1` displayed a half-maximal inhibitory concentration (IC50) of 181 µM.

`O=Cc1cc(NC(=O)/C=C/c2ccco2)ccc1N1CCOCC1`: the midpoint of inhibition, the IC50, lay at 107 µM.

As usually defined, the IC50 is the concentration needed to halve the response being measured. A higher IC50 goes with a need for much substance.
